The test system of this assay is Aspergillus parasiticus B62. The class given is cell-based.

With `Cc1cc(OC(=O)c2c(C)cc(O)cc2O)cc(O)c1C(=O)O` [Lecanoric acid], the growth result was “inhibitory effects”.

With `COC(=O)c1c(C)cc(O)cc1O` [methyl-orsellinate], the growth entry is listed as “inhibitory effects”.
